Results: patent US12391962B2, “Targeting peptide to deliver a compound to oocytes” (THE PENN STATE RESEARCH FOUNDATION, priority 2017, dated 2025)
“And” between values parts separate entries of the source, which are not always exact repeats. Equal entries are not always repeated. “Also recorded” adds a separate entry of the source.

What was measured:
[1] = system: kmo gene; assay: Paternal allele knockout by adult female injection: white eye females x wild-type males; assay type: in vivo, Aedes aegypti; settings: EER co-injected with RNP; for altered offspring with the endosomal release reagent: females injected at 48-52 h PBF; for mosaic offspring per injected females with the endosomal release reagent: 48-52 h PBF, 1/20 females
From the text: After mating as described in the above, females (generation −1; G−1) were blood fed and injected with P2C-Cas9 RNPs and EERs. Resulting G0 offspring were screened for kmo gene editing phenotypes (white or mosaic eyes). Genomic DNA from identified individuals was extracted using DNeasy blood and tissue kits (Qiagen) and the region spanning both kmo 460 and 519* sites amplified by PCR using primers ZA2210 (5′TTC-AAG-ACC-AGG-CCT-CAA-TC3′) (SEQ ID NO: 35) and KmR1 (5′TCA-CTA-AAC-TCA-GCC-AGT-ATC-CTA-T3′) (SEQ ID NO: 36) and cloned into the pJET1.2 vector. A minimum of 6 clones per individual were randomly selected and sequenced.
In order to estimate the frequency of paternal gene editing, homozygous Wh-Iso8-kmo^460 females outcrossed to homozygous wild type males were injected at 48-52 h PBF. […] The region spanning the target sites from the mosaic individual collected from saponin treatment was cloned and sequenced (FIG. 10A). […] The genomic DNA from the monensin and spontaneous white eye individuals were not of suitable quality for PCR and cloning.

[2] = target: T1, recombinant Cas9 (Streptococcus pyogenes serotype M1, UniProt Q99ZW2); assay: In vitro DNA cleavage assay; assay type: biochemical; settings: gel separation
T1 construct: vector-derived additions of pET28a-Cas9-cys (the plasmid name implies an added Cys); made in house; host or cells: E. coli BL21 and Rosetta2 (DE3) pLysS
T1 sequence (Q99ZW2 whole entry): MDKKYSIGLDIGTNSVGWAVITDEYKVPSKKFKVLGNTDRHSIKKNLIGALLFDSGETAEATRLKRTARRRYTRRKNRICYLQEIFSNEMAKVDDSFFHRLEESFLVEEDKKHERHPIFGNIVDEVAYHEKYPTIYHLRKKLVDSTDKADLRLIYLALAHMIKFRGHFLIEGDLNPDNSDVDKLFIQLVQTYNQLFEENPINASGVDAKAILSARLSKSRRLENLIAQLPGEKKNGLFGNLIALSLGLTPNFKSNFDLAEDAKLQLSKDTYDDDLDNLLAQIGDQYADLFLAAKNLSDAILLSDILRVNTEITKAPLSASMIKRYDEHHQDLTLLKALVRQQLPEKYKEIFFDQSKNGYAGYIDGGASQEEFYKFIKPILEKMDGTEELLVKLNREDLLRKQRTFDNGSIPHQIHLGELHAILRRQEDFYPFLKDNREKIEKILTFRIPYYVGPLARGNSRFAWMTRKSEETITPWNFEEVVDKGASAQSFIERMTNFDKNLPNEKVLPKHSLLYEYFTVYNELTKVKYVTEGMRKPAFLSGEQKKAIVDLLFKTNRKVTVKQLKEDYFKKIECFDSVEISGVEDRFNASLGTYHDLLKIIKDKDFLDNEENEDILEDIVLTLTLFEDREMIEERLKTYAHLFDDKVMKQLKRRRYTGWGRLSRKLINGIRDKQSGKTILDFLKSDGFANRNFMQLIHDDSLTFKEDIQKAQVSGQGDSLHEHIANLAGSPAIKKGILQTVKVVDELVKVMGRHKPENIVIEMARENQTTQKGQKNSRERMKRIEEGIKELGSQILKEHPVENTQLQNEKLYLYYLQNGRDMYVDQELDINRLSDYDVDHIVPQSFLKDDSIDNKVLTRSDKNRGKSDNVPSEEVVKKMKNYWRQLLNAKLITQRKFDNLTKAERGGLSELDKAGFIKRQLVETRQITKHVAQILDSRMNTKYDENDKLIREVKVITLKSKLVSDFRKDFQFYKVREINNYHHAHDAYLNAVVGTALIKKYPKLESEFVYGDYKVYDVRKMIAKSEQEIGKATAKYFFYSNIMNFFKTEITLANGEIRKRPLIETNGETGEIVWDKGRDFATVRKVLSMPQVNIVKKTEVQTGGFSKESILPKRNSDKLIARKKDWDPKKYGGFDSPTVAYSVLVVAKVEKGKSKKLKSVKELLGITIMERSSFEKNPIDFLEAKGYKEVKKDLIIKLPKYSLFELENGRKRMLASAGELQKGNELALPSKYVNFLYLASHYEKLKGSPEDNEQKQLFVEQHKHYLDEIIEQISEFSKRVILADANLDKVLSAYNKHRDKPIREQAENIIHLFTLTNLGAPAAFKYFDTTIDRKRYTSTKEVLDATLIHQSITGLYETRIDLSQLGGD
Procedure: Reactions were performed for 1 h at 37° C. and diagnostic bands visualized by electrophoresis in a 1% agarose/TAE gel.

[3] = system: Ae. aegypti females; assay: LD50 of endosomal escape reagents injected into the hemolymph 24h PBF; settings: injected into the hemolymph of females 24h PBF; 100 females injected
[4] = system: Bemisia tabaci ovaries; assay: Transduction of mCherry into ovaries with vitellogenin-derived targeting peptide; assay type: in vivo; settings: injection into adult females
From the text: (§1) Several targeting peptides, including […] (Bemisia tabaci, SEQ ID NO: 26), […] (Bombus impatiens, SEQ ID NO: 27), […] (Ixodes scapularis, SEQ ID NO: 28), or […] (Danio rerio, SEQ ID NO: 29), were further validated. The DNA encoding these peptides were synthesized, fused to the fluorescent reporter proteins GFP or mCherry (with a HIS tag to aid in purification), and cloned into pET28. The plasmids were then transformed into E. coli BL21 (NEB) and Rosetta2™ (DE3) pLysS competent cells, with the transformation being verified by […].
(§2) To induce expression of the recombinant protein, a preculture was grown overnight at 30° C. in 50 mL of Luria Broth (LB) supplemented with […] chloramphenicol and […] kanamycin. After 12 hours, 10 mL of preculture was transferred to 900 mL of LB supplemented with the same antibiotics, incubated at 37° C. until OD=0.6. Then 0.05 mM isopropyl β-D-1-thiogalactopyranoside (IPTG) was added and the culture incubated overnight at 30° C.
(§3) Cells were spun down at >10,000×g for 15 min, resuspended in 50 mL lysis buffer (20 mM Tris-HCl, pH 8.0, 300 mM NaCl, 20 mM imidazole), placed at −80° C. overnight and incubated with lysozyme (1 mg/ml) and 100 ppm of […] (PMSF) for 30 min at 4° C. The suspension was sonicated 5 times at 60% duty 5 seconds pulse 5 seconds rest (two aliquots each 20 mL), centrifuged at 13,000×g for 30 min, the supernatant removed and incubated with Ni-NTA beads (Qiagen) with rotation at 4° C. overnight. Beads were washed 3 times with 10 mL lysis buffer and eluted with 1 mL elution buffer (20 mM Tris-HCl, pH 8.0, 300 mM NaCl, 250 mM imidazole) 10 times. Eluted protein was dialyzed in a Slide-A-Lyzer dialysis cassette (Thermo Fisher) for two hours in dialysis buffer (50 mM Tris-HCl, pH 8.0, 300 mM KCl, 0.1 mM EDTA, 0.5 mM PMSF) and buffer changed every 2 hours, for 2 times, then left overnight at 4° C. with gentle agitation in fresh buffer, Protein purity was visualized by SDS-PAGE and concentration estimated using Bradford assay. […]

[5] = system: Danio rerio ovaries; assay: Transduction of EGFP into ovaries with vitellogenin-derived targeting peptide; assay type: in vivo; settings: injection into adult females
From the text: as §1, §2
Cells were spun down at >10,000×g for 15 min, resuspended in 50 mL lysis buffer (20 mM Tris-HCl, pH 8.0, 300 mM NaCl, 20 mM imidazole), placed at −80° C. overnight and incubated with lysozyme (1 mg/ml) and 100 ppm of […] (PMSF) for 30 min at 4° C. […]

[6] = system: Ixodes scapularis ovaries; assay: Transduction of mCherry into ovaries with vitellogenin-derived targeting peptide; assay type: in vivo; settings: injection into adult females
From the text: as §1, §2, §3

[7] = system: Anopheles gambiae oocytes; assay: Ovary uptake of EGFP fusion proteins after injection into blood-fed females (fluorescence microscopy); assay type: in vivo
Procedure: To show DmYP1 (or fragments thereof) act as suitable ligands to deliver protein cargo into mosquito oocytes, a DmYP1-EGFP, or fragments of DmYP1-EGFP, fusion protein was expressed and injected into the thorax of Anopheles gambiae females 12 and 24 h post-blood feeding (PBF).
Injections were performed with an aspirator tube assembly (A5177, Sigma) fitted with a glass capillary needle. Adult females were immobilized at 4° C. following a bloodmeal and kept on ice during injection. Females were injected intrathoracically until no additional fluid would enter, at an approximate volume of 200 nl per female. To visually confirm EGFP in the ovaries following injection, ovaries were dissected, mounted in saline buffer mixed with SlowFade Gold® antifade reagent (Invitrogen), covered with a coverslip and imaged on an Olympus BX41 epifluorescent microscope. Negative controls were injected with recombinant EGFP lacking a targeting ligand.
A deletion analysis of the DmYP1 protein was conducted to identify the smaller region that efficiently transduced cargo into mosquito ovaries. Three portions of approximately 120 amino acids (FIG. 1) were encoded on an expression plasmid linked to EGFP via a Glycine-Serine linker. Fusion proteins included the DmYP1 secretion signal at the N-terminus. The construct was inserted into the plasmid pAc5-STABLE1-Neo under control of the Drosophila Actin5C promoter. Plasmids were transfected into Drosophila S2 cells using Lipofectamine® LTX WITH Plus™ Reagent (ThermoFisher). Cell culture supernatant was collected 72 hours post-transfection, concentrated 100× using Amicon® and Centricon® Plus-70 centrifugal filter devices (Millipore) and injected into female An. gambiae 12 and 24 hours PBF. Ovaries were dissected 12, 24 and 48 h hours post-injection, dissected and visualized for EGFP fluorescence. EGFP fusion protein fused to the full length DmYP1 protein (439 amino acids) was used as a positive control, while recombinant EGFP without a targeting ligand was used as a negative control.

[8] = system: mealybug ovaries; assay: P2C-mediated delivery of EGFP to mealybug ovaries; assay type: in vivo; settings: procedure of Example 1
Procedure: To determine if P2C could be used in to deliver cargo in species other than mosquito, it was tested on mealybugs using the procedure of Example 1. […] Therefore, P2C is an effective targeting molecule in more than just mosquitoes.

[9] = system: B. tabaci white gene; assay: Knockout of the B. tabaci white gene by ReMOT Control (adult female injection); assay type: in vivo, Bemisia tabaci
Procedure: The females were injected and placed on a piece of soybean leaflet in a petri dish with a moist paper towel wrapped around the stem and another paper towel on the bottom plate to prolong the life of the leaflet. Water and liquid fertilizer were added as needed. Females were removed from the leaflet 2 weeks post injection. The petri dishes were incubated at 28° C., 16L/8D cycle, in a humidified Heratherm IMH750-S reach-in chamber, and the progeny of injected females screened visually for altered eye color in nymphs or adults using an Olympus SZX7 stereomicroscope. Mutations in insects showing altered eye color were confirmed by PCR using PHIRE Tissue Direct PCR Master Mix (Thermo Fischer Scientific), the amplicon was cloned into pJET1.2, and clones were submitted for Sanger sequencing.
For proof of principle gene editing experiments, we chose the white gene, which is an ABC transporter protein responsible for transport of ommochrome pigments into the eyes.

[10] = system: Aedes aegypti ovaries; assay: Transduction of mCherry into ovaries with vitellogenin-derived targeting peptide; assay type: in vivo; settings: injection into adult females
[11] = system: Bombus impatiens ovaries; assay: as above; assay type: in vivo; settings: injection into adult females
From the text: as §1, §2, §3

[12] = injection 12 h PBF, Total of 2 replicates
[13] = injection 24 h PBF, Total of 2 replicates

Molecule: Cl.N [Ammonium Chloride]
- altered offspring with the endosomal release reagent [1]: no altered offspring

Molecule: CCN(CC)CCCC(C)Nc1ccnc2cc(Cl)ccc12 (stereo not drawn) [Chloroquine]
- effect on Cas9 cleavage function in vitro [2]: did not affect Cas9 cleavage function in vitro
- effect on Cas9 cleavage function in vitro ([2]; listed as chloroquine): not inhibited
- altered offspring with the endosomal release reagent [1]: no altered offspring

Molecule: CC[C@@]1([C@@H]2O[C@@H]([C@H]3O[C@@](O)(CO)[C@H](C)C[C@@H]3C)C[C@@H]2C)CC[C@H]([C@]2(C)CC[C@]3(C[C@H](O)[C@@H](C)[C@@H]([C@@H](C)[C@@H](OC)[C@H](C)C(=O)O)O3)O2)O1 [Monensin]
- mosaic offspring per injected females with the endosomal release reagent [1]: 5%
- LD50 [3]: 1.0 mM

Molecule: O=C(N/N=C/c1ccc(O)c(O)c1)c1cc2ccccc2cc1O [dynasore]
- altered offspring with the endosomal release reagent [1]: no altered offspring

Molecule: DIVKTTNY
- transduction of mCherry protein into ovaries [4]: transduced into developing vitellogenic eggs

Molecule: IVTKSKDL
- transduction of EGFP protein into ovaries [5]: transduced into developing vitellogenic eggs

Molecule: NFTKTKNY
- transduction of mCherry protein into ovaries [6]: transduced into developing vitellogenic eggs

Molecule: NLQQQRQHGKNGNQDYQDQSNEQRKNQRTSSEEDYSEEVKN (Drosophila melanogaster) [P2C]
- localization of transduced EGFP ([7]; embryo development): observed in yolk granules (arrows) throughout embryo development
- ovary uptake / delivery of EGFP in deletion analysis of DmYP1 ([7]; fragments expressed as EGFP fusion proteins): contained the RBR; also recorded: fully sufficient to deliver EGFP to Anopheles oocytes
- dose dependence of P2C-mediated transduction of EGFP ([7]; injected 12 h, ovaries dissected 24 h PBF): dose-dependent
- delivery of EGFP into eggs [8]: able to specifically deliver EGFP into the developing vitellogenic eggs, but not the immature eggs
- gene editing outcome by targeting peptide (in words) ([9]; Cas9 RNP injections, with or without saponin): did not function robustly; also recorded: did not result in any visibly edited offspring; also recorded: did not generate knockouts

Molecule: QVTKTQNF
- transduction of mCherry protein into ovaries [10]: transduced into developing vitellogenic eggs

Molecule: RKSKNFDK
- transduction of mCherry protein into ovaries [11]: transduced into developing vitellogenic eggs

Molecule: Saponin [reference compound]
- mosaic offspring per injected females with the endosomal release reagent [1]: 5%
- effect of saponin as endosome escape reagent on editing ([9]; higher concentrations (8, 16 μg/mL)): inhibitory; also recorded: detrimental to the process
- LD50 [3]: 0.024 mM

B1: DmYP1-EGFP: fusion protein of full length Drosophila melanogaster Yolk Protein 1 (439 amino acids) with EGFP (protein)
chain: PNGRMDNSVNQALKPSQWLSGSQLEAIPALDDFTIERLENMNLERGAELLQQVYHLSQIHHNVEPNYVPSGIQVYVPKPNGDKTVAPLNEMIQRLKQKQNFGEDEVTIIVTGLPQTSETVKKATRKLVQAYMQRYNLQQQRQHGKNGNQDYQDQSNEQRKNQRTSSEEDYSEEVKNAKTQSGDIIVIDLGSKLNTYERYAMLDIEKTGAKIGKWIVQMVNELDMPFDTIHLIGQNVGAHVAGAAAQEFTRLTGHKLRRVTGLDPSKIVAKSKNTLTGLARGDAEFVDAIHTSVYGMGTPIRSGDVDFYPNGPAAGVPGASNVVEAAMRATRYFAESVRPGNERSFPAVPANSLQQYKQNDGFGKRAYMGIDTAHDLEGDYILQVNPKSPFGRNAPAQKQSSYHGVHQAWNTNQDSKDYQ
modifications: left off: small tags and cut ends; large carriers
notes: fusion protein of full length Drosophila melanogaster Yolk Protein 1 (439 amino acids) with EGFP
- % Follicles (Efficiency) ([7]; injection 12 h PBF): 100% and 98%
- N Follicles with EGFP ([7]; injection 12 h PBF): 243 and 381
- N (showing EGFP in follicles) ([7]; injection 12 h PBF, 20 females injected per replicate): 17 and 19
- % Follicles (Efficiency) [7, 12]: 99.7%^
- N Follicles with EGFP [7, 12]: 624
- N (showing EGFP in follicles) ([7]; injection 12 h PBF, Total of 2 replicates, 40 injected): 36
- % Follicles (Efficiency) ([7]; injection 24 h PBF): 98% and 99%
- N Follicles with EGFP ([7]; injection 24 h PBF): 245 and 197
- N (showing EGFP in follicles) ([7]; injection 24 h PBF, 20 females injected per replicate): 18 and 17
- % Follicles (Efficiency) [7, 13]: 98.2%^
- N Follicles with EGFP [7, 13]: 442
- N (showing EGFP in follicles) ([7]; injection 24 h PBF, Total of 2 replicates, 40 injected): 35
- primary oocytes with EGFP visualized ([7]; regardless of the timing of the injection, ovaries dissected 24-72 h PBF): 90-100%
